Results from PMC9863764, “Roles of Human Liver Cytochrome P450 Enzymes in Tenatoprazole Metabolism” (Pharmaceutics, 2022).

Columns and labels:
Format in all cases: in vitro ADME
[1] = target: T1, CYP2A6 (Homo sapiens, UniProt P11509); assay: Tenatoprazole oxidation by recombinant CYP2A6; conditions: substrate tenatoprazole 0.10 mM, 0.20 μM CYP2A6; no apparent formation
T1 construct: made in house; host or cells: Escherichia coli (membrane fractions)
T1 sequence (P11509 1-494): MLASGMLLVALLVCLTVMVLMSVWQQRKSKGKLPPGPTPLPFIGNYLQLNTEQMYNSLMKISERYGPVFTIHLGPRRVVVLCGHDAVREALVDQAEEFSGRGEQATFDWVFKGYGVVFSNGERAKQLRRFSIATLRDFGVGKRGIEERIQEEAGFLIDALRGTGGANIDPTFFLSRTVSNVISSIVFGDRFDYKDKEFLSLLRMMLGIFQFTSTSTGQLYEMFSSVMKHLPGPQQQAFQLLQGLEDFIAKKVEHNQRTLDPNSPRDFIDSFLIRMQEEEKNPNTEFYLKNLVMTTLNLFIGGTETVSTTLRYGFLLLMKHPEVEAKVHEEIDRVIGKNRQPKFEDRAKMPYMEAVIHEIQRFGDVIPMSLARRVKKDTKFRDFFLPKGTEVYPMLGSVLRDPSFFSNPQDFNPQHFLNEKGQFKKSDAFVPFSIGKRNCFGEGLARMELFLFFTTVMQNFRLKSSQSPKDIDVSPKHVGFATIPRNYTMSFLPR
Description: (§1) Pooled liver microsomes from human samples were obtained from ThermoFisher Scientific (Waltham, MA, USA). Recombinant human P450s were heterologously expressed in Escherichia coli with a pCW vector containing human P450 cDNA (CYP 3A4, 2C9, 2C19, 1A2, 1B1, 2E1, 2D6, and 2A6) and rat NADPH-P450 reductase (CPR). Membrane fractions expressing both P450 and CPR of E. coli were prepared as described previously and were used for the catalytic activity assays.
(§2) The reaction mixture included 0.20 μM P450, 0.40 μM CPR, and tenatoprazole (0.10 mM) in 0.25 mL of 0.10 M potassium phosphate buffer (pH 7.4). The reaction was started by adding NGS and the incubation was continued for the indicated time at 37 °C. Incubation was then stopped by adding ice-chilled ethyl acetate (0.50 mL) and omeprazole (IS) was added to a final concentration of 20 μM. The mixtures were vortexed for 2 min, centrifuged at 1000× g for 20 min, and then the organic layer was taken for drying under nitrogen gas stream. The residues were dissolved in 180 μL of HPLC mobile phase and 30 μL was injected onto a Gemini C18 column (4.6 × 150 mm, 5 μm; Phenomenex, Torrance, CA, USA). The products formed were analyzed by HPLC at A302. The HPLC profile of the authentic chemicals (i.e., tenatoprazole, tenatoprazole sulfide, and their metabolites) were used to identify the major metabolites of tenatoprazole and tenatoprazole sulfide produced by the recombinant P450s.
(§3) Figure S6. HPLC analyses of the products derived from the oxidation of tenatoprazole catalyzed by recombinant human P450s. The reaction mixture included 0.20 μM P450, 0.40 μM CPR, and 0.10 mM tenatoprazole in 0.25 mL of potassium phosphate buffer (0.10 M, pH 7.4). The reaction was started by adding an NGS at 37 °C for 60 min. (A) CYP1A2; (B) CYP1B1; (C) CYP2A6; (D) CYP2C9; (E) CYP2D6; (F) CYP2E1. The arrows with solid and broken lines indicate the retention times of 5’-OH tenatoprazole (6.6 min) and 5’-OH tenatoprazole sulfide (8.4 min), respectively.
(§4) (1 picture or pasted object on this page, not shown here)

[2] = target: T2, CYP1B1 (Homo sapiens, UniProt Q16678); assay: Tenatoprazole oxidation by recombinant CYP1B1; conditions: substrate tenatoprazole 0.10 mM, 0.20 μM CYP1B1; no apparent formation
T2 construct: made in house; host or cells: Escherichia coli (membrane fractions)
T2 sequence (Q16678 1-543): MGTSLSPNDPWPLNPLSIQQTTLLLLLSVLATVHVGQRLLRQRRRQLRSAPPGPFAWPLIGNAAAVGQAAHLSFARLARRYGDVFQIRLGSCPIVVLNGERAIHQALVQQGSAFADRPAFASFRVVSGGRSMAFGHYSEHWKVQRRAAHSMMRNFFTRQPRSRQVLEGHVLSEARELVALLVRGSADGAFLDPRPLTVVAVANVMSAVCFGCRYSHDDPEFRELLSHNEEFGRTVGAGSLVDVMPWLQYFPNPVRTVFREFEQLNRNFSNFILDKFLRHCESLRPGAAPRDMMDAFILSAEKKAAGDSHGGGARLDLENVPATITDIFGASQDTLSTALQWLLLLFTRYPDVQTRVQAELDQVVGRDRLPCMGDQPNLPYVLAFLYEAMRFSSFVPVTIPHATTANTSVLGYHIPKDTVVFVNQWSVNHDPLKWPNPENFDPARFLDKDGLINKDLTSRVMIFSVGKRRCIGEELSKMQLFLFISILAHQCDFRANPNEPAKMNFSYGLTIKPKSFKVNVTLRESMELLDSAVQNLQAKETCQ
Description: as §1, §2, §3, §4

[3] = target: T3, CYP2E1 (Homo sapiens, UniProt P05181); assay: Tenatoprazole oxidation by recombinant CYP2E1; conditions: substrate tenatoprazole 0.10 mM, 0.20 μM CYP2E1; no apparent formation
T3 construct: made in house; host or cells: Escherichia coli (membrane fractions)
Description: as §1, §2, §3, §4

[4] = target: T4, CYP1A2 (Homo sapiens, UniProt P05177); assay: Tenatoprazole oxidation by recombinant CYP1A2; conditions: substrate tenatoprazole 0.10 mM, 0.20 μM CYP1A2; no apparent formation
T4 construct: made in house; host or cells: Escherichia coli (membrane fractions)
T4 sequence (P05177 1-516): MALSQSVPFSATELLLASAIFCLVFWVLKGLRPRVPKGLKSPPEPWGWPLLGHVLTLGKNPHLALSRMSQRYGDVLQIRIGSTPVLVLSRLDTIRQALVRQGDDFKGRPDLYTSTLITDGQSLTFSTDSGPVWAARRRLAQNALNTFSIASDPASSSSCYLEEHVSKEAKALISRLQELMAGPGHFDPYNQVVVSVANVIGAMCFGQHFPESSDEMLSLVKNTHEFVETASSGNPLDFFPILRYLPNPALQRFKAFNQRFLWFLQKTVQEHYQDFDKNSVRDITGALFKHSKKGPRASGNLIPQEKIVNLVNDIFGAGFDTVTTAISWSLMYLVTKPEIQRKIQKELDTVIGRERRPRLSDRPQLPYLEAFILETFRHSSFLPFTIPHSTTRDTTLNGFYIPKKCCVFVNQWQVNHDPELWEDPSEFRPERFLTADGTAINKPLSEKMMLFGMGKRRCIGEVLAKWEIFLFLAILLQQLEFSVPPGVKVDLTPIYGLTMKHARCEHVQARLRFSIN
Description: as §1, §2, §3, §4

Measured: formation rate of metabolite

T3 sequence (P05181 whole entry): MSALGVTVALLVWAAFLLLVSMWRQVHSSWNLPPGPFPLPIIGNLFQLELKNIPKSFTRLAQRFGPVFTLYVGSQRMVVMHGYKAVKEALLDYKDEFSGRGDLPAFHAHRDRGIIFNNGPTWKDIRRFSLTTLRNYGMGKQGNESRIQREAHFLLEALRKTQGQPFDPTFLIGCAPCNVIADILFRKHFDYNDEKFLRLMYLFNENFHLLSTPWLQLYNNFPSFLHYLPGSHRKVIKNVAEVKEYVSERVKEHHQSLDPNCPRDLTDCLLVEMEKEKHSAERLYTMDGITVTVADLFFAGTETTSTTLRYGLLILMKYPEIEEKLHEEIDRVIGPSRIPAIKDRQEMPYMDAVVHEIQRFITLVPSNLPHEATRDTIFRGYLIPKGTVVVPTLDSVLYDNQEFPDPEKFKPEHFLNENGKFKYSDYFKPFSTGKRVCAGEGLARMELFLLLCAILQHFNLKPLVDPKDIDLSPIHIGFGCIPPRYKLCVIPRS

COc1ccc2[nH]c(S(=O)(=O)Cc3ncc(C)c(OC)c3C)nc2n1 [tenatoprazole sulfone]
< 0.05 nmol product/min/nmol P450: all assays above

COc1ccc2[nH]c([S+]([O-])Cc3ncc(CO)c(OC)c3C)nc2n1 (centres unmarked) [5′-OH tenatoprazole, 5′-hydroxy tenatoprazole]
< 0.05 nmol product/min/nmol P450: all assays above
